# Measured values reported in patent publication US5164406A, “Method for enhancing transdermal penetration and compositions useful therein” (priority 1989, dated 1992).
# Where a name gives a salt, the structure may show the parent alone. Read-outs that look alike come from different tables or passages of the source.
# Experiments:
# [1] = general statement; cited from earlier work
# [2] = for Increase in penetration relative to control: multiple of average control determination
# Experimental: Polyoxyethylene stearyl ethers, 3 wt. %
# Polyoxypropylene fatty alcohol ethers, 3 wt. %
# Deionized water, 94 wt. %
# Further, in all cases, unless otherwise noted, the tests were carried out at 37° C. and results were compared to penetration data for the same material in the oil/water emulsion base. Moreover, all percentages of composition components recited are, unless otherwise indicated, weight percent (wt. %) and are based upon the total weight of the composition.
# The test method is carried out as follows:
# A. Prior to testing, rats are routinely acclimated to the laboratory environment for seven days and gross observations are made to ensure good health of the animals to be tested.
# B. Female Sprague Dawley rats (190-240 gm) are selected for testing and identified by cage label and ear tag number.
# C. Diffusion Cell Preparation.
# 1. An O-ring is placed on a standard Franz Diffusion Cell. A stir bar is placed in the receptor compartment. Each cell is filled with approximately 4.5 ml sterile physiologic saline (receptor compartments are calibrated to contain 5.0 ml).
# 2. The jacketed diffusion cells are maintained at 37° C.±1° (or alternatively desired temperature) using an external water bath and a circulating pump.
# D. Skin Section Preparation and Mounting
# 1. Test animals are sacrificed by intraperitoneal injection of 0.4 ml/100 gm. body weight sodium pentobarital (1 gm/ml).
# 2. The backs are lightly shaved using electric hair clippers.
# 3. A section of skin, measuring approximately 8 cm long by 7 cm wide, is removed from the back of each rat using a No. 20 scalpel assuring that the skin section is free from subcutaneous fat.
# 4. A piece of the skin section is mounted over an O-ring on the diffusion cell, epidermal side facing up. The donor compartment is placed on top of the skin section making a complete seal over the skin. A clamp is used to secure the skin section in place.
# 5. Air bubbles that collect under the skin are removed by inverting the diffusion cell and tapping it gently. The receptor compartment is filled with sterile physiologic saline to 5.0 ml.
# E. Application of Test Materials
# 1. Test and control materials are applied to the skin using s syringe or spatula. The material is spread evenly and completely over the exposed skin surface using the tip of the syringe/spatula.
# 1. An HPLC carousel is loaded with microvials. Springs and inserts are placed into the microvials.
# 2. Receptor compartments are sampled at desired time intervals using a microliter (μl) syringe. The sample (approximately 160 μl) is placed into the insert. The microvial is sealed with a plastic cap.
# 3. When multiple sampling is required, the receptor compartment is replenished with sterile physiologic saline to maintain a 5.0 ml volume.
# Samples are analyzed using standard analytical techniques. The presence of test material in the samples is indicative of transdermal penetration.
# [3] = Pig skin (in vitro) transdermal penetration; type: in vitro ADME, Yucatan miniature pig
# Experimental: The test procedure is as described for rat skin studies with the exception that excised pig skin samples from Yucatan miniature pigs are utilized.
# To address this issue, in vitro skin penetration of tripelennamine (TPL) in 2 saturated aqueous solutions, was measured using pig skin in accordance with the Pig Skin (in vitro) procedure earlier outlined. One solution contained 0.5% IMI. The other solution served as an aqueous control (buffered with NaOH to the same pH as the IMI containing solution).
# Since all skin sections are dermatomed to 380 microns, h is a constant. In each composition of Table 5, the vehicle was saturated with the pharmacologic agent. Therefore, the "leaving tendency", or the thermodynamic activity of the pharmacologic agent in the vehicle, remained unchanged (K is the same for both compositions). this means that D must increase in order to explain the 3-fold increase in transdermal penetration. This is indicative of a true enhancement effect of topically applied IMI. The results of Table 5, substantiate that IMI acts as a true skin penetration enhancer. […] This may be one reason why use of a transdermal penetration enhancing amount of a selected imidazole or imidazole derivative of the present invention, in conjunction with a pharmacologically active agent whose transdermal penetration is capable of being enhanced, affords the advantageous enhancement of penetration achieved by the present invention.
# [4] = cited from earlier work
# [5] = Human skin (in vitro) transdermal penetration; type: in vitro ADME; conditions: Table 4
# Source text: The test procedure is as described for rat skin studies with the exception that normal excised human skin samples obtained from breast reduction surgery are utilized.
# As shown by the results of Table 4, imidazole enhanced xylometazoline penetration through human skin 5.3 fold.
# [6] = B + 1% drug + 0.5% IMI, Table 3
# [7] = B + 5% TPL + 5% XYL, Table 3 Study I
# [8] = B + 5% TRP + 5% XYL, Table 3 Study II
compound,measurement,setting,value
Cn1cc[n+](C)c1 [Compound Ia],Heat stability,[1],unstable to heat
"c1c[nH]cn1 [IMIDAZOLE, imidazole]",24 hour penetration of tripelennamine HCl (total micrograms base),[2]; 2% TPL in B + 0.01% imidazole,208 micrograms base
same,24 hour penetration of tripelennamine HCl (total micrograms base),[2]; 2% TPL in B + 0.1% imidazole,413 micrograms base
same,24 hour penetration of tripelennamine HCl (total micrograms base),[2]; 2% TPL in B + 1.0% imidazole,662 micrograms base
same,TPL penetration increased as compared to the control,"[2]; 2% TPL in B, imidazole up to 1.0%, Table 1",approximately 340%
same,Increase in penetration relative to control,[2]; 2% TPL in B + 0.01% imidazole,1.1
same,Increase in penetration relative to control,[2]; 2% TPL in B + 0.1% imidazole,2.1
same,Increase in penetration relative to control,[2]; 2% TPL in B + 1.0% imidazole,3.4
same,Increase in skin permeation of TPL,[3]; 0.5% IMI in saturated aqueous TPL solution,3 fold
"CN(C)CCN(Cc1ccccc1)c1ccccn1 [TPL, TRIPELENNAMINE HCL, reference compound]",24 hour penetration (total micrograms base),[2],196 micrograms base
same,Increase in TPL penetration,[2],270%
same,Penetration of TPL enhanced by,[2],1190%
same,Skin irritation,[4]; IPM at 0.5%,little or no skin irritation
same,Skin irritation,[4]; IPM levels sufficient to enhance transdermal penetration,generally are irritating to skin
same,Increase in skin permeation of TPL,[3],approximately 3 fold
same,24 hour penetration (total micrograms base),"[3]; aqueous control: saturated TPL/H2O, buffered with NaOH to the same pH, Table 5",132 micrograms base
same,Increase in penetration relative to control,"[3]; multiple of average control determinations, saturated TPL/H2O + 0.5% IMI, Table 5",2.75
same,24 hour penetration (total micrograms base),"[3]; saturated TPL/H2O + 0.5% IMI, Table 5",363 micrograms base
"Cc1cc(C(C)(C)C)cc(C)c1CC1=NCCN1 [XYL, XYLO[…], HCL, reference compound]",Imidazole enhanced xylometazoline penetration through human skin,[5]; 2% XYL with 0.5% imidazole,5.3 fold
same,24 hour penetration (total micrograms base),[5]; B + 2% XYL + 0.5% IMI,203 micrograms base
same,24 hour penetration (total micrograms base),[5]; control: B + 2% XYL,38 micrograms base
same,Increase in penetration relative to control,"[5]; multiple of average control determination, B + 2% XYL + 0.5% IMI",5.3
same,Penetration enhanced by imidazole,"[2]; 1% drug with 0.5% imidazole, Table 3 Studies V and VI",610%
same,24 hour penetration (total micrograms base),[2]; [6],613 micrograms base
same,24 hour penetration (total micrograms base),[2]; [7],444 micrograms base
same,24 hour penetration (total micrograms base),[2]; [8],1053 micrograms base
same,Penetration of XYL,"[2]; combination of TPL and XYL vs XYL alone, Table 3 Study I",remained fairly constant
same,Increase in transdermal penetration,"[2]; combination of TRP and XYL, Table 3 Study II",90%
same,24 hour penetration (total micrograms base),"[2]; control: 1% of the drug alone in B, Table 3",100 micrograms base
same,24 hour penetration (total micrograms base),"[2]; control: 5% of the drug alone in B, Table 3",544 micrograms base
same,Increase in penetration relative to control,[2]; [6],6.1
same,Increase in penetration relative to control,[2]; [7],0.8
same,Increase in penetration relative to control,[2]; [8],1.9
Cn1ccn(C)c1=O [compound IIa],Heat stability,[1],heat stable
